In ChEMBL document CHEMBL5608211, “Antibody-drug conjugates for targeted cancer therapy: Recent advances in potential payloads” (Eur J Med Chem, 2024):

Tests used:
EMT6 = experiment: Cytotoxicity against mouse EMT6 cells assessed as inhibition of cell growth incubated for 3 days by SRB assay; format: functional, cell-based; details: EMT6, 72 h
DEL = experiment: Cytotoxicity against human DEL cells assessed as inhibition of cell growth incubated for 4 days by CellTiter-Glo luminescent assay; format: functional, cell-based; details: 96 h
SK-BR-3 = experiment: Cytotoxicity against human SK-BR-3 cells incubated for 144 hrs by CellTiter-Glo luminescent assay; format: functional, cell-based; details: SK-BR-3, 144 h
SK-MEL-5 = experiment: Cytotoxicity against human SK-MEL-5 cells assessed as cell growth inhibition by measuring lethal concentration by MTT assay; format: functional; details: read-out: LC50 (the source's name)
HOP-92 = experiment: Cytotoxicity against human HOP-92 cells assessed as cell growth inhibition by measuring lethal concentration by MTT assay; format: functional; details: read-out: LC50 (the source's name)
786-0 = experiment: Cytotoxicity against human 786-0 cells assessed as cell growth inhibition by measuring lethal concentration by MTT assay; format: functional; details: read-out: LC50 (the source's name)
Hs-578T = experiment: Cytotoxicity against human Hs-578T cells assessed as cell growth inhibition by measuring lethal concentration by MTT assay; format: functional; details: read-out: LC50 (the source's name)
SK-MEL-2 = experiment: Cytotoxicity against human SK-MEL-2 cells assessed as cell growth inhibition by measuring lethal concentration by MTT assay; format: functional; details: read-out: LC50 (the source's name)
NCI-H23 = experiment: Cytotoxicity against human NCI-H23 cells assessed as cell growth inhibition by measuring lethal concentration by MTT assay; format: functional; details: read-out: LC50 (the source's name)
SK-OV-3 = experiment: Cytotoxicity against human SK-OV-3 cells assessed as cell growth inhibition by measuring lethal concentration by MTT assay; format: functional; details: read-out: LC50 (the source's name)
SW-620 = experiment: Cytotoxicity against human SW620 cells assessed as cell growth inhibition by measuring lethal concentration by MTT assay; format: functional; details: read-out: LC50 (the source's name)
SF-268 = experiment: Cytotoxicity against human SF-268 cells assessed as cell growth inhibition by measuring lethal concentration by MTT assay; format: functional; details: read-out: LC50 (the source's name)
RPMI-8226 = experiment: Cytotoxicity against human RPMI-8226 cells assessed as cell growth inhibition by measuring lethal concentration by MTT assay; format: functional; details: read-out: LC50 (the source's name)
SNB-19 = experiment: Cytotoxicity against human SNB-19 cells assessed as cell growth inhibition by measuring lethal concentration by MTT assay; format: functional; details: read-out: LC50 (the source's name)
SN12C = experiment: Cytotoxicity against human SN12C cells assessed as cell growth inhibition by measuring lethal concentration by MTT assay; format: functional; details: read-out: LC50 (the source's name)
OVCAR-4 = experiment: Cytotoxicity against human OVCAR-4 cells assessed as cell growth inhibition by measuring lethal concentration by MTT assay; format: functional; details: read-out: LC50 (the source's name)
SF-539 = experiment: Cytotoxicity against human SF-539 cells assessed as cell growth inhibition by measuring lethal concentration by MTT assay; format: functional; details: read-out: LC50 (the source's name)
A498 = experiment: Cytotoxicity against human A498 cells assessed as cell growth inhibition by measuring lethal concentration by MTT assay; format: functional; details: read-out: LC50 (the source's name)
COLO 205 = experiment: Cytotoxicity against human COLO 205 cells assessed as cell growth inhibition by measuring lethal concentration by MTT assay; format: functional; details: read-out: LC50 (the source's name)
OVCAR-5 = experiment: Cytotoxicity against human OVCAR-5 cells assessed as cell growth inhibition by measuring lethal concentration by MTT assay; format: functional; details: read-out: LC50 (the source's name)
MOLT-4 = experiment: Cytotoxicity against human MOLT-4 cells assessed as cell growth inhibition by measuring lethal concentration by MTT assay; format: functional; details: read-out: LC50 (the source's name)
MDA-N = experiment: Cytotoxicity against human MDA-N cells assessed as cell growth inhibition by measuring lethal concentration by MTT assay; format: functional; details: read-out: LC50 (the source's name)
[1] = Cytotoxicity against human […] cells assessed as cell growth inhibition by measuring lethal concentration by MTT assay; format: functional; details: read-out: LC50 (the source's name)
CCRF-CEM = experiment: Cytotoxicity against human CCRF-CEM cells assessed as cell growth inhibition by measuring lethal concentration by MTT assay; format: functional; details: read-out: LC50 (the source's name)
NCI/ADR-RES = experiment: Cytotoxicity against human MCF7ADR cells assessed as cell growth inhibition by measuring lethal concentration by MTT assay; format: functional; details: read-out: LC50 (the source's name)
Malme-3M = experiment: Cytotoxicity against human Malme-3M cells assessed as cell growth inhibition by measuring lethal concentration by MTT assay; format: functional; details: read-out: LC50 (the source's name)
U-251 = experiment: Cytotoxicity against human U-251 cells assessed as cell growth inhibition by measuring lethal concentration by MTT assay; format: functional; details: read-out: LC50 (the source's name)
OVCAR-8 = experiment: Cytotoxicity against human OVCAR-8 cells assessed as cell growth inhibition by measuring lethal concentration by MTT assay; format: functional; details: read-out: LC50 (the source's name)
MDA-MB-435 = experiment: Cytotoxicity against human MDA-MB-435 cells assessed as cell growth inhibition by measuring lethal concentration by MTT assay; format: functional; details: read-out: LC50 (the source's name)
HCC 2998 = experiment: Cytotoxicity against human HCC 2998 cells assessed as cell growth inhibition by measuring lethal concentration by MTT assay; format: functional; details: read-out: LC50 (the source's name)
PC-3 = experiment: Cytotoxicity against human PC-3 cells assessed as cell growth inhibition by measuring lethal concentration by MTT assay; format: functional; details: read-out: LC50 (the source's name)
NCI-H522 = experiment: Cytotoxicity against human NCI-H522 cells assessed as cell growth inhibition by measuring lethal concentration by MTT assay; format: functional; details: read-out: LC50 (the source's name)
SF-295 = experiment: Cytotoxicity against human SF-295 cells assessed as cell growth inhibition by measuring lethal concentration by MTT assay; format: functional; details: read-out: LC50 (the source's name)
EKVX = experiment: Cytotoxicity against human EKVX cells assessed as cell growth inhibition by measuring lethal concentration by MTT assay; format: functional; details: read-out: LC50 (the source's name)
UACC-257 = experiment: Cytotoxicity against human UACC-257 cells assessed as cell growth inhibition by measuring lethal concentration by MTT assay; format: functional; details: read-out: LC50 (the source's name)
NCI-H226 = experiment: Cytotoxicity against human NCI-H226 cells assessed as cell growth inhibition by measuring lethal concentration by MTT assay; format: functional; details: read-out: LC50 (the source's name)
UACC-62 = experiment: Cytotoxicity against human UACC-62 cells assessed as cell growth inhibition by measuring lethal concentration by MTT assay; format: functional; details: read-out: LC50 (the source's name)
KM12 = experiment: Cytotoxicity against human KM12 cells assessed as cell growth inhibition by measuring lethal concentration by MTT assay; format: functional; details: read-out: LC50 (the source's name)
UO-31 = experiment: Cytotoxicity against human UO-31 cells assessed as cell growth inhibition by measuring lethal concentration by MTT assay; format: functional; details: read-out: LC50 (the source's name)
NCI-H460 = experiment: Cytotoxicity against human NCI-H460 cells assessed as cell growth inhibition by measuring lethal concentration by MTT assay; format: functional; details: read-out: LC50 (the source's name)
M14 = experiment: Cytotoxicity against human M14 cells assessed as cell growth inhibition by measuring lethal concentration by MTT assay; format: functional; details: read-out: LC50 (the source's name)
TK-10 = experiment: Cytotoxicity against human TK-10 cells assessed as cell growth inhibition by measuring lethal concentration by MTT assay; format: functional; details: read-out: LC50 (the source's name)
HT-29 = experiment: Cytotoxicity against human HT-29 cells assessed as cell growth inhibition by measuring lethal concentration by MTT assay; format: functional; details: read-out: LC50 (the source's name)
CAKI-1 = experiment: Cytotoxicity against human CAKI-1 cells assessed as cell growth inhibition by measuring lethal concentration by MTT assay; format: functional; details: read-out: LC50 (the source's name)
OVCAR-3 = experiment: Cytotoxicity against human OVCAR-3 cells assessed as cell growth inhibition by measuring lethal concentration by MTT assay; format: functional; details: read-out: LC50 (the source's name)
T47D = experiment: Cytotoxicity against human T47D cells assessed as cell growth inhibition by measuring lethal concentration by MTT assay; format: functional; details: read-out: LC50 (the source's name)
BT-549 = experiment: Cytotoxicity against human BT-549 cells assessed as cell growth inhibition by measuring lethal concentration by MTT assay; format: functional; details: read-out: LC50 (the source's name)
HCT-116 = experiment: Cytotoxicity against human HCT-116 cells assessed as cell growth inhibition by measuring lethal concentration by MTT assay; format: functional; details: read-out: LC50 (the source's name)
HCT-15 = experiment: Cytotoxicity against human HCT-15 cells assessed as cell growth inhibition by measuring lethal concentration by MTT assay; format: functional; details: read-out: LC50 (the source's name)
DU-145 = experiment: Cytotoxicity against human DU-145 cells assessed as cell growth inhibition by measuring lethal concentration by MTT assay; format: functional; details: read-out: LC50 (the source's name)
ACHN = experiment: Cytotoxicity against human ACHN cells assessed as cell growth inhibition by measuring lethal concentration by MTT assay; format: functional; details: read-out: LC50 (the source's name)
SK-MEL-28 = experiment: Cytotoxicity against human SK-MEL-28 cells assessed as cell growth inhibition by measuring lethal concentration by MTT assay; format: functional; details: read-out: LC50 (the source's name)
IGROV-1 = experiment: Cytotoxicity against human IGROV-1 cells assessed as cell growth inhibition by measuring lethal concentration by MTT assay; format: functional; details: read-out: LC50 (the source's name)
A549 = experiment: Cytotoxicity against human A549 cells assessed as cell growth inhibition by measuring lethal concentration by MTT assay; format: functional; details: read-out: LC50 (the source's name)
HOP-62 = experiment: Cytotoxicity against human HOP-62 cells assessed as cell growth inhibition by measuring lethal concentration by MTT assay; format: functional; details: read-out: LC50 (the source's name)
HL-60 = experiment: Cytotoxicity against human HL-60 cells assessed as cell growth inhibition by measuring lethal concentration by MTT assay; format: functional; details: read-out: LC50 (the source's name)
SNB-75 = experiment: Cytotoxicity against human SNB-75 cells assessed as cell growth inhibition by measuring lethal concentration by MTT assay; format: functional; details: read-out: LC50 (the source's name)

**Q.** For `COc1cc2c(cc1OCCCCCC(=O)N1C[C@H](CCl)c3c1cc(O)c1ccccc31)N=C[C@@H]1CCCN1C2=O`, which IC50 (EMT6) is on record?
**A.** 0.0078 nM

**Q.** For `CC[C@@]1(O)C(=O)OCc2c1cc1n(c2=O)Cc2c-1nc1cc3c(cc1c2CN)OCO3`, which IC50 (DEL) is on record?
**A.** 0.7 nM

**Q.** For `Cc1cccc2c(O)cc3c(c12)[C@H](CCl)CN3C(=O)c1cn2cc(NC(=O)c3ccc(O)cc3)ccc2n1`, which IC50 (SK-BR-3) is on record?
**A.** 0.09 nM

**Q.** What does the source list for `C=C1C[C@H]2C=Nc3cc(OCCCCCCCCCCOc4cc5c(cc4OC)C(=O)N4CC(=C)C[C@H]4C=N5)c(OC)cc3C(=O)N2C1`?
**A.** CC50 (SK-MEL-5): 0.14 nM; CC50 (HOP-92): 0.14 nM; CC50 (786-0): 0.14 nM; CC50 (Hs-578T): 0.14 nM; CC50 (SK-MEL-2): 0.14 nM; CC50 (NCI-H23): 0.14 nM; CC50 (SK-OV-3): 0.14 nM; CC50 (SW-620): 0.14 nM; CC50 (SF-268): 0.14 nM; CC50 (RPMI-8226): 0.14 nM; CC50 (SNB-19): 0.14 nM; CC50 (SN12C): 0.14 nM; CC50 (OVCAR-4): 0.14 nM; CC50 (SF-539): 0.14 nM; CC50 (A498): 0.14 nM; CC50 (COLO 205): 0.14 nM; CC50 (OVCAR-5): 0.14 nM; CC50 (MOLT-4): 0.14 nM; CC50 (MDA-N): 0.14 nM; CC50 [1]: 0.14 nM; CC50 (CCRF-CEM): 0.14 nM; CC50 (NCI/ADR-RES): 0.14 nM; CC50 (Malme-3M): 0.14 nM; CC50 (U-251): 0.14 nM; CC50 (OVCAR-8): 0.14 nM; CC50 (MDA-MB-435): 0.14 nM; CC50 (HCC 2998): 0.14 nM; CC50 (PC-3): 0.14 nM; CC50 (NCI-H522): 0.14 nM; CC50 (SF-295): 0.14 nM; CC50 (EKVX): 0.14 nM; CC50 (UACC-257): 0.14 nM; CC50 (NCI-H226): 0.14 nM; CC50 (UACC-62): 0.14 nM; CC50 (KM12): 0.14 nM; CC50 (UO-31): 0.14 nM; CC50 (NCI-H460): 0.14 nM; CC50 (M14): 0.14 nM; CC50 (TK-10): 0.14 nM; CC50 (HT-29): 0.14 nM; CC50 (CAKI-1): 0.14 nM; CC50 (OVCAR-3): 0.14 nM; CC50 (T47D): 0.14 nM; CC50 (BT-549): 0.14 nM; CC50 (HCT-116): 0.14 nM; CC50 (HCT-15): 0.14 nM; CC50 (DU-145): 0.14 nM; CC50 (ACHN): 0.14 nM; CC50 (SK-MEL-28): 0.14 nM; CC50 (IGROV-1): 0.14 nM; CC50 (A549): 0.14 nM; CC50 (HOP-62): 0.14 nM; CC50 (HL-60): 0.14 nM; CC50 (SNB-75): 0.14 nM
